From ChEMBL document CHEMBL1201862, “PubChem BioAssay data set” (2004)
The source made the active and inactive calls.

Assays:
[1] = biological target: Prothrombin (Bos taurus, UniProt P00735); assay: thrombin inhibition, dose response, biochemical, fluorescence polarization, uHTS hits (AID 602369); format: functional
[2] = biological target: Peroxisome proliferator-activated receptor gamma/Nuclear receptor coactivator 2 (Homo sapiens, UniProt P37231); assay: (§1) TR-FRET dose response biochemical High Throughput Screening assay for agonists of the steroid receptor coactivator 2 (SRC-2) recruitment by the peroxisome proliferator-activated receptor gamma (PPAR gamma): non-selective agonists. [Related pubchem assays: 1297, 1032 ]; format: functional
[3] = yeast RAM network inhibitors, dose response, S. cerevisiae (AID 1307); format: functional
[4] = biological target: 72 kDa type IV collagenase (Homo sapiens, UniProt P08253); assay: Dose Response validation of uHTS RPN11 inhibitor hits using a MMP-2 Fluorescence assay.; format: functional
Chain of 72 kDa type IV collagenase (P08253 whole entry): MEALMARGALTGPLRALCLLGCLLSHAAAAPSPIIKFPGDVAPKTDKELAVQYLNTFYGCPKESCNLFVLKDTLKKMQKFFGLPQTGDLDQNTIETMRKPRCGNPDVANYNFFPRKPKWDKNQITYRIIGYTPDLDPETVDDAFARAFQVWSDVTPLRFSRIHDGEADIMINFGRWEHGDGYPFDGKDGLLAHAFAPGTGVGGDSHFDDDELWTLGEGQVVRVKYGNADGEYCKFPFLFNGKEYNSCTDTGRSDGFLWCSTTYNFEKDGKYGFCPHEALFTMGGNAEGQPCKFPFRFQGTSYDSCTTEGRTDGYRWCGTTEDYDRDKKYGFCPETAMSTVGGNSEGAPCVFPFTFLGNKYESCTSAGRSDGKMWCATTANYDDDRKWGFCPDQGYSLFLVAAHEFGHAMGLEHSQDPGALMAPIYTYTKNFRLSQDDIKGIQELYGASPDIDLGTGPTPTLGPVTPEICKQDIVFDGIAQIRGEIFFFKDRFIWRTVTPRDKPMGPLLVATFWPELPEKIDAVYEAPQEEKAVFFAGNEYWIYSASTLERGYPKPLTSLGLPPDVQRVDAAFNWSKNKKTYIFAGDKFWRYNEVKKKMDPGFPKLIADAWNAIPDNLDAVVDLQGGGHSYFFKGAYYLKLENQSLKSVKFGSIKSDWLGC

[5] = biological target: Nonstructural protein 1 (Influenza A virus, UniProt Q194T2); format: functional, Influenza A virus (A/California/07/2009(H1N1))
Chain of Nonstructural protein 1 (Q194T2 whole entry): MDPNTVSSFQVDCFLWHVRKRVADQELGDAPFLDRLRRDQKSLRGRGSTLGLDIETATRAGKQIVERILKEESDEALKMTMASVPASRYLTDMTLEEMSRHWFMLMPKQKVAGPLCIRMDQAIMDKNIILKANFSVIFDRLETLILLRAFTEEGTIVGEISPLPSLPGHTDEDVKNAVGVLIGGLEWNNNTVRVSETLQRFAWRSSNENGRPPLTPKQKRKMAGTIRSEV

[6] = biological target: Peroxisome proliferator-activated receptor gamma/Nuclear receptor coactivator 1 (Homo sapiens, UniProt P37231); assay: as §1, with “1 (SRC-1)” for “2 (SRC-2)”, “assays (depositor defined):AID1300, AID1808, AID504735, AID631]” for “assays: 1297, 1032 ]”; format: protein assay
Chain of Peroxisome proliferator-activated receptor gamma/Nuclear receptor coactivator 1 (P37231 whole entry): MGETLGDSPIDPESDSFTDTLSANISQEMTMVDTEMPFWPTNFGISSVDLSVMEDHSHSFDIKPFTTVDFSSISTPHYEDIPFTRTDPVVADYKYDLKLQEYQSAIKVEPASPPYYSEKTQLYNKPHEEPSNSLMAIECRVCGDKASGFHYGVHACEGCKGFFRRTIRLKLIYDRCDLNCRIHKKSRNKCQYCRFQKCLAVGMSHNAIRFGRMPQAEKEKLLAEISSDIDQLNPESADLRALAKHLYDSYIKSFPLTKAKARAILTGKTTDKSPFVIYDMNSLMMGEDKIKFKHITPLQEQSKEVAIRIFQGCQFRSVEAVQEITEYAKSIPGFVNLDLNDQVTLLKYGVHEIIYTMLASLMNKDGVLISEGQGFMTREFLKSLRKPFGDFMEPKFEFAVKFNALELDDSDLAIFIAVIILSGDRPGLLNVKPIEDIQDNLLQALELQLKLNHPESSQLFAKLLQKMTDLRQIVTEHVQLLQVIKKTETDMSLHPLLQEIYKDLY
Chain of Peroxisome proliferator-activated receptor gamma/Nuclear receptor coactivator 1 (Q15788 whole entry, further chain): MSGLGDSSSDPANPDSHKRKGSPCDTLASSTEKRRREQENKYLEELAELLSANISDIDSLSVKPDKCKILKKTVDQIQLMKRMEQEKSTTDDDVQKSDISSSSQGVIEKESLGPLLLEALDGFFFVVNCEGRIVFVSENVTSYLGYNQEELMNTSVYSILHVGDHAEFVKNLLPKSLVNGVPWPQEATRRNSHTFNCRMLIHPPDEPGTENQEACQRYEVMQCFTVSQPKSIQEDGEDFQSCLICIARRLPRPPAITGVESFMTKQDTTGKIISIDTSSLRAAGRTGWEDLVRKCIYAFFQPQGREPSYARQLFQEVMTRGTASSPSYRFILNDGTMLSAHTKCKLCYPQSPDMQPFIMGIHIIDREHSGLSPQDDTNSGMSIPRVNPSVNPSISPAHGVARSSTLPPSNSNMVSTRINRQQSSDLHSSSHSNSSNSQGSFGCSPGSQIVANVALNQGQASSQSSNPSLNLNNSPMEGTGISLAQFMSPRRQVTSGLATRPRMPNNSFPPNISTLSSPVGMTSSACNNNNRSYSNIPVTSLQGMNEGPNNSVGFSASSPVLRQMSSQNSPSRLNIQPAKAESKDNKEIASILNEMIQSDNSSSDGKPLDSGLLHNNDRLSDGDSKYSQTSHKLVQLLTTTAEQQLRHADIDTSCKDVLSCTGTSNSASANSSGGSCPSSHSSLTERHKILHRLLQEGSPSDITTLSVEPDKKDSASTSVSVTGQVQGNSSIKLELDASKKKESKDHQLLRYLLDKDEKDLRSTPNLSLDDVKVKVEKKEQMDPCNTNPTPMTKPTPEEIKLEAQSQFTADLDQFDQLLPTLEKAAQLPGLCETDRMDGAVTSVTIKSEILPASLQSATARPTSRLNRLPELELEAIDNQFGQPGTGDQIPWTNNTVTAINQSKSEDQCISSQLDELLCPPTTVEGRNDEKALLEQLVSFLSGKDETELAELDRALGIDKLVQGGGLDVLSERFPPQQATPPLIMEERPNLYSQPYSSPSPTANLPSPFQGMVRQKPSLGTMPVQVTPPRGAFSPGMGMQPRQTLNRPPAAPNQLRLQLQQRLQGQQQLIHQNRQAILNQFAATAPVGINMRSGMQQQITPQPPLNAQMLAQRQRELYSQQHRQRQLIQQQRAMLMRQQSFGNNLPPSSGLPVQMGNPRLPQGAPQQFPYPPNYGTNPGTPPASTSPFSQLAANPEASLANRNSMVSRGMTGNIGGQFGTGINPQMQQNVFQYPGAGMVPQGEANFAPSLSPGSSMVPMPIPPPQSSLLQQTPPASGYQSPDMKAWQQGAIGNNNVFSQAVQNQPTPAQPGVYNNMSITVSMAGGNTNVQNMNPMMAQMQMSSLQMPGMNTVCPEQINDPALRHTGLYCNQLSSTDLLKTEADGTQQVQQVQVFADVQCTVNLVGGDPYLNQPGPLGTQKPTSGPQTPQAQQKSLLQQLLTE

[7] = biological target: Peroxisome proliferator-activated receptor gamma/Nuclear receptor coactivator 3 (Homo sapiens, UniProt P37231); assay: as §1, with “3 (SRC-3)” for “2 (SRC-2)”, “1301 (Confirmation screen.), 1048 (Primary screen.)]” for “1297, 1032 ]”; format: functional
[8] = biological target: 26S proteasome non-ATPase regulatory subunit 14 (Homo sapiens, UniProt O00487); assay: inhibition of proteasome subunit RPN11 – biochemical, fluorescence polarization, uHTS hits, confirmation (AID 602368); format: functional
Chain of 26S proteasome non-ATPase regulatory subunit 14 (O00487 whole entry): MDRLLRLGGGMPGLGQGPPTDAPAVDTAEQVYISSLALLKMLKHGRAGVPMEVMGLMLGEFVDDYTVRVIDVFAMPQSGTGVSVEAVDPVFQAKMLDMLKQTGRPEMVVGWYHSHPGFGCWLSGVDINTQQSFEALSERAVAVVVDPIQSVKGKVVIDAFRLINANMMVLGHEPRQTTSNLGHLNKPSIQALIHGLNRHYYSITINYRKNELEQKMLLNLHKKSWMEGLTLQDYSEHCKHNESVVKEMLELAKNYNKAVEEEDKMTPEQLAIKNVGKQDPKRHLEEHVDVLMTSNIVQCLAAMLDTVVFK

[9] = biological target: Bcl-2-like protein 1 (Homo sapiens, UniProt Q07817); assay: BCL-XL inhibitors, dose response, selectivity assay for MCL1 inhibitor project, biochemical, fluorescence polarization, 1536-well (AID 2218)
Chain of Bcl-2-like protein 1 (Q07817 whole entry): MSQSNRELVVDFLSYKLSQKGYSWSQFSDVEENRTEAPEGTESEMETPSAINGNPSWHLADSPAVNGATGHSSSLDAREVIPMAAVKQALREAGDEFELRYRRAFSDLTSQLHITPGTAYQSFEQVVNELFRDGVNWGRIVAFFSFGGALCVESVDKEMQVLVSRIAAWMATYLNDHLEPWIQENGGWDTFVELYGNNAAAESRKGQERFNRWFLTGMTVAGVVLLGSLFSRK

[10] = biological target: T1, Induced myeloid leukemia cell differentiation protein Mcl-1 (Homo sapiens, UniProt Q07820); assay: MCL1-BIM BH3 interaction inhibitors, dose response, biochemical, fluorescence polarization, BIM-BH3 peptide, 1536-well (AID 2217)
T1 sequence (Q07820 whole entry): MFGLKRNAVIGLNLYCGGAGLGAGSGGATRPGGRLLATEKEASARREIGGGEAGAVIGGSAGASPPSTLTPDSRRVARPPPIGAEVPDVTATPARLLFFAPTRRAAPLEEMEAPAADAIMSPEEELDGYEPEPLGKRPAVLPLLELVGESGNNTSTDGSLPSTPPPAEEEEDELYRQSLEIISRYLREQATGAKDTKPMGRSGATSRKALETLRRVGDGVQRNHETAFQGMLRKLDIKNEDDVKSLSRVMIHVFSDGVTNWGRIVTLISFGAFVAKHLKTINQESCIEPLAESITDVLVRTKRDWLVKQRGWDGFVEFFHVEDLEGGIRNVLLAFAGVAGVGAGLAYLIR

[11] = biological target: Genome polyprotein (dengue virus type 2, UniProt P29990); assay: Dengue-2 NS5 methyltransferase inhibitors, primary screen, biochemical, confirmation dose response (AID 588689); format: functional
[12] = biological target: NADPH oxidase 1 (Homo sapiens, UniProt Q9Y5S8); format: functional, cell-based;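 also: Cell-based assay with luminescence read-out, IC50 derived from inhibitor dose-response curves; intracellular ROS from endogenous NOX1 in intact HT29 colon cancer cells; potency of inhibitors that lower the ROS luminescence signal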
[13] = biological target: Protein-tyrosine kinase 2-beta (Homo sapiens, UniProt Q14289);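 also: potency of inhibitors of PYK2 kinase phosphorylation of poly-GT substrate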
[14] = biological target: T1, Induced myeloid leukemia cell differentiation protein Mcl-1; format: functional
[15] = biological target: T2, Bcl-2-like protein 10 (Homo sapiens, UniProt Q9HD36); assay: displacers of TR3 peptide from Bcl-B, primary screen, selectivity assay for Bfl-1 inhibitor project, biochemical, fluorescence polarization, FITC-TR3 peptide (AID 748);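 also: fluorescence polarization from a fluorescein-labelled TR3 peptide binding purified Bcl-B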
T2 sequence (Q9HD36 whole entry): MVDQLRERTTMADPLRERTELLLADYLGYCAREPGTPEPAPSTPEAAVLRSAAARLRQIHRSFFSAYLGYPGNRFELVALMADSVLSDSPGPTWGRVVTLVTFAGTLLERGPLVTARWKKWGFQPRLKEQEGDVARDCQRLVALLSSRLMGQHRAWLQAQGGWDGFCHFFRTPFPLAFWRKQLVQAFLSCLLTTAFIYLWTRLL

[16] = biological target: T3, Mannose-6-phosphate isomerase (Homo sapiens, UniProt P34949); assay: human PMI inhibitors, high substrate, primary screen, biochemical, fluorescence intensity, high mannose 6-phosphate (AID 1220)
T3 sequence (P34949 whole entry): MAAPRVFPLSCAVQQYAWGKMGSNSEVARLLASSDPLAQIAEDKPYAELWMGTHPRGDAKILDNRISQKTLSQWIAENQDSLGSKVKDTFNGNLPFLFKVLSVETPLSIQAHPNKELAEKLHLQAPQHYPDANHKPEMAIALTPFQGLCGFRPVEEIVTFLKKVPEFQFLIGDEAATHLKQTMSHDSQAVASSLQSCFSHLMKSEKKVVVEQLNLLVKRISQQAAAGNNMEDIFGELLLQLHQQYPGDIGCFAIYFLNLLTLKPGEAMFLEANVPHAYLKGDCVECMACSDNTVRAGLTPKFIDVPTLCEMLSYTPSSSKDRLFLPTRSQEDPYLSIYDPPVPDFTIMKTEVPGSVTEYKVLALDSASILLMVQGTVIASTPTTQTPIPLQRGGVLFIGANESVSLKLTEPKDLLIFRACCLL

[17] = Shn3 3'UTR reporter inhibitors, dose response, cell-based, Clone20 osteoblasts, firefly luciferase, cherry-picked (AID 624132); format: functional;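 also: firefly luciferase luminescence from reporter carrying the Shn3 3'UTR in osteoblasts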
[18] = biological target: T4, Polyadenylate-binding protein 1 (Homo sapiens, UniProt P11940); assay: PABP1 MLLE–PAM2 interaction inhibitors, dose response, miRNA deadenylation inhibitor project, biochemical, fluorescence polarization, Cy5-PAM2 peptide, secondary (AID 602260); format: functional; conditions: read-out: IC50_Mean
T4 sequence (P11940 whole entry): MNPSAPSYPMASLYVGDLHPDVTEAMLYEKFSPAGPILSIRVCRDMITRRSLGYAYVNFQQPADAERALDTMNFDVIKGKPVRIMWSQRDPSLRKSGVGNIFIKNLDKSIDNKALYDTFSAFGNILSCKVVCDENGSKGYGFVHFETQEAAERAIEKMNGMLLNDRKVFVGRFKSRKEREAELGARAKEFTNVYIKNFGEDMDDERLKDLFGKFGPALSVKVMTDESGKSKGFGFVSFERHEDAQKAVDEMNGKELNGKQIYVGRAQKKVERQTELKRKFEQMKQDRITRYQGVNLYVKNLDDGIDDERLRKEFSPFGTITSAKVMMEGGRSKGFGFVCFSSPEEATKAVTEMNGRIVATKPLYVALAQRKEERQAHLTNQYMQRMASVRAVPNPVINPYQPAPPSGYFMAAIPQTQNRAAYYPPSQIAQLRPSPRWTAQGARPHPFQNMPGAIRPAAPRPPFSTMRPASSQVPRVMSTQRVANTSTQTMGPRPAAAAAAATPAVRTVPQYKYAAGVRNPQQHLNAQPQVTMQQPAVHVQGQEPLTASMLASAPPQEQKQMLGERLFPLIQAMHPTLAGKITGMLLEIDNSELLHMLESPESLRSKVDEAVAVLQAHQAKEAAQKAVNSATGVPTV

[19] = test system: INS1; assay: beta cell apoptosis inhibitors, cytokine rescue, dose response, luminescence, retest (AID 449756); format: functional, cell-based; conditions: Rattus norvegicus;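 also: cell death triggered by IL-1 beta plus TNF-alpha plus IFN-gamma mixture; protective hits raise ATP signal compared with cytokine alone wells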
[20] = HepG2 cell cytotoxicity, dose response, cytotoxicity control for Shn3 inhibitor project, CellTiter-Glo, cherry-picked (AID 624134); format: functional, cell-based
[21] = biological target: T3, Mannose-6-phosphate isomerase; assay: inhibitors of human PMI, primary screen, biochemical, fluorescence intensity, coupled assay (AID 1209)
[22] = biological target: T5, Heat shock factor protein 1 (Mus musculus, UniProt P38532); assay: inhibition of MG132-induced HSE-luciferase signal, confirmation, cell-based, NIH3T3, luminescence, dose retest (AID 2382); format: functional;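 also: NIH3T3 fibroblasts with HSF1-driven luciferase reporter stressed by proteasome inhibitor MG132; luminescence from HSF1-driven luciferase expression after 8 hours of MG132 stress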
T5 sequence (P38532 whole entry): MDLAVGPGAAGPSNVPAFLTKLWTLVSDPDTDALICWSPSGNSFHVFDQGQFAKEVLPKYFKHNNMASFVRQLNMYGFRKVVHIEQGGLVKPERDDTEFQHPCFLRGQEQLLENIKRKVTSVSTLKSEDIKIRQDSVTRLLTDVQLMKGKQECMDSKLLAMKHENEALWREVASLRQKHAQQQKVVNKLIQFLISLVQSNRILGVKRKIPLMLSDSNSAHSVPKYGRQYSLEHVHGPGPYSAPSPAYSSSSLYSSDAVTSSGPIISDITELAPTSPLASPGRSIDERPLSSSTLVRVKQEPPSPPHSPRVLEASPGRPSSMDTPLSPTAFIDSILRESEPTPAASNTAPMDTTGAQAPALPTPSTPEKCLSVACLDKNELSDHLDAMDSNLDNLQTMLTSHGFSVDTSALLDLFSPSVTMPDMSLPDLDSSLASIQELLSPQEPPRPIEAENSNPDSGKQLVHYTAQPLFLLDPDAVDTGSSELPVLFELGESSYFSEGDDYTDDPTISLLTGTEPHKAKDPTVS

[23] = control 3'UTR Renilla luciferase suppression, dose response, counter-screen for Shn3 inhibitor project, cell-based, Clone20-Shn3RL, cherry-picked (AID 624133); format: functional
[24] = biological target: T4, Polyadenylate-binding protein 1; assay: PABP1 MLLE–PAM2 binding inhibitor potency, dose response, biochemical, fluorescence polarization, FITC-PAM2 peptide (AID 602259); format: functional; conditions: read-out: IC50_Mean
[25] = biological target: Sphingosine 1-phosphate receptor 2 (Homo sapiens, UniProt O95136); assay: Dose Response Cell Based Assay for Agonists of the S1P2 Receptor of Purchased Analogues. [Related pubchem assays: 729, 843, 854, 736 ]; format: functional
[26] = Late stage counterscreen results from the probe development effort to identify activators of signal transducer and activator of transcription 1 (STAT1): luminescence-based cell-based dose response assay to identify cytotoxic compounds.; format: functional
[27] = biological target: T6, Endoribonuclease toxin MazF (Escherichia coli K-12, UniProt P0AE70); assay: MazF toxin RNase activators, dose response, biochemical, fluorescence, single-stranded RNA substrate, uHTS hits (AID 588481); format: functional
T6 sequence (P0AE70 whole entry): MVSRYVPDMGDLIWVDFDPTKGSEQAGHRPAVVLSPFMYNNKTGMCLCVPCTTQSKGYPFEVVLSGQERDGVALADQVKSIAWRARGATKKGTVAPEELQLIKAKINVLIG

[28] = biological target: T6, Endoribonuclease toxin MazF; assay: fluorescent RNA oligo signal without MazF, dose response, counter-screen for MazEF activator project, biochemical, fluorescence, single-stranded RNase substrate (AID 588502); format: functional
[29] = biological target: T7, Tyrosine-protein phosphatase non-receptor type 7 (Homo sapiens, UniProt P35236); assay: inhibitors of human HePTP phosphatase, […], biochemical, absorbance, leukemia target (AID 521); format: functional
T7 sequence (P35236 whole entry): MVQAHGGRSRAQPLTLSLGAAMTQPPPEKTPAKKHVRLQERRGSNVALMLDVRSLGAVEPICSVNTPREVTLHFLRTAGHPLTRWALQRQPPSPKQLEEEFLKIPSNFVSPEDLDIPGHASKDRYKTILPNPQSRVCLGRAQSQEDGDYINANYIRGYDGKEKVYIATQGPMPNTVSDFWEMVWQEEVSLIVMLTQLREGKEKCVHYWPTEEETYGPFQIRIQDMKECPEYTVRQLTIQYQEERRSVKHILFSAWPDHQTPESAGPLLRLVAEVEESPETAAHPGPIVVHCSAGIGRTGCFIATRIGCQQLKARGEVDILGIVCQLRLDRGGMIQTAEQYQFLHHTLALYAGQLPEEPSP

[30] = cytotoxicity in HPDE-C7 cells, cell-based, fluorescence, HTS (AID 430); format: functional; conditions: Homo sapiens
[31] = biological target: T5, Heat shock factor protein 1; assay: HSF1 potentiators in luciferase reporter cells, confirmation, cell-based, NIH3T3, luminescence, dose retest (AID 435004); format: functional;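 also: stress induced by proteasome inhibitor MG132 added 30 min after compound; luciferase reporter driven by HSF1 response element in NIH3T3 cells; actives raise luminescence as potentiators of the MG132 stress response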
[32] = biological target: T8, Estrogen receptor beta (Homo sapiens, UniProt Q92731);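 also: recombinant ER-beta bound to coactivator SRC1 peptide in presence of estradiol agonist; inhibitors block coactivator peptide binding and lower the FRET signal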
T8 sequence (Q92731 whole entry): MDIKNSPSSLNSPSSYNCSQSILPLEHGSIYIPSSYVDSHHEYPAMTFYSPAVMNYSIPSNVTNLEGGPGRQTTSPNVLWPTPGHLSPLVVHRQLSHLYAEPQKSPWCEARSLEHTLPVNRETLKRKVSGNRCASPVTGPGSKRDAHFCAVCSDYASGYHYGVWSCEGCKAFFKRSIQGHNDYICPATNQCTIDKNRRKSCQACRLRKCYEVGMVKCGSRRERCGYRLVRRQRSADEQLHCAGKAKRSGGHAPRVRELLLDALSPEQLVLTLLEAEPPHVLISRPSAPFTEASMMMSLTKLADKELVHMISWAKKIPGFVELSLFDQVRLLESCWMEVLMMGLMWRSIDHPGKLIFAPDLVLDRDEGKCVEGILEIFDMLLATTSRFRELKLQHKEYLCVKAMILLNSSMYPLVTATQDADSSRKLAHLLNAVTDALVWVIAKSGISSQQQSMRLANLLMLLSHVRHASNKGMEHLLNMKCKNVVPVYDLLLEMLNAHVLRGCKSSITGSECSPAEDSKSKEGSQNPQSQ

[33] = biological target: Cytochrome P450 2D6 (Homo sapiens, UniProt P10635);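 also: CYP2D6 member of a cytochrome P450 panel assay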
[34] = biological target: T8, Estrogen receptor beta; assay: ERβ–SRC-3 coactivator interaction inhibitors, confirmation, orthogonal assay, biochemical, ELISA, streptavidin-HRP readout (AID 1060)
[35] = cytotoxicity in KRAS-transformed pancreatic duct cells, primary screen, cell-based, fluorescence, HTS (AID 431); format: functional; conditions: Homo sapiens;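 also: cell line used: HPDE-C7K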

CN(C)c1ccc(/C=C/C=C2/C(=O)NC(=O)N(c3ccccc3)C2=O)cc1
IC50 [1]: 19.6 µM (active) | EC50 [2]: 4.13 µM (active) | IC50 [3]: 317 µM (active) | IC50 [4]: 71.2 µM (active) | IC50 [5]: 12.1 µM (active) | EC50 [6]: > 2.94 µM (inactive) | EC50 [7]: > 79.4 µM (not active) | IC50 [8]: 28.2 µM (active)

CCc1sc(C(C2C(=O)CC(C)(C)CC2=O)C2C(=O)CC(C)(C)CC2=O)cc1[N+](=O)[O-]
IC50 [9]: > 109 µM (not active) | IC50 [10]: 6.08 µM (active) | IC50 [11]: 16.4 µM (active)

O=C(CCC(=O)Nc1ccccc1)Nc1ccccc1
IC50 [12]: > 17 µM (not active)

Cn1c(SCC(=O)Nc2ccc3nc(SCC(=O)N4CCCC4)sc3c2)nnc1-c1ccc(N)cc1
IC50 [13]: 2.5 µM (active) | IC50 [14]: 1.82 µM (active) | IC50 [15]: 58.3 µM (inactive)

Oc1ccc(CN2CCCc3ccccc32)c2cccnc12
IC50 [16]: > 50 µM (not active) | AC50 [17]: 5.4 µM (active) | IC50 [18]: > 66 µM (inactive) | AC50 [19]: 11.8 µM (active) | AC50 [20]: 8.25 µM (active) | IC50 [5]: 32.2 µM (active) | IC50 [21]: > 50 µM (not active) | EC50 [22]: 29 µM (active) | AC50 [23]: 17.3 µM (active) | IC50 [24]: > 66 µM (inactive)

Cc1cc(C(=O)Cn2cnc3c(oc4ccccc43)c2=O)c(C)n1Cc1ccccc1
EC50 [25]: > 30 µM (not active)

CCN(CC)c1ccc2cc(C(=O)Nc3ccccn3)c(=O)oc2c1
IC50 [26]: > 55.7 µM (not active) | EC50 [27]: > 99 µM (inactive) | EC50 [28]: > 99 µM (inactive)

CCn1c(SCC(=O)N2CCOCC2)nc2oc3c(Cl)cc(Cl)cc3c(=O)c2c1=O
IC50 [29]: > 100 µM (not active) | EC50 [30]: > 20 µM (not active) | EC50 [31]: 16.1 µM (inconclusive) | IC50 [32]: 17.2 µM (active) | AC50 [33]: 15.8 µM (inconclusive) | IC50 [34]: 13.3 µM (not active) | EC50 [35]: > 20 µM (not active)
